≈ marks a conversion by molar mass, not a printed value.
Tests used:
in vitro [1] = conditions: plasma
PC12-G93A-YFP cell line = assay: cytotoxicity protection assay against mutant SOD1-induced cytotoxicity; format: cell-based; conditions: read-out: Potency (EC50)
[2] = ref our previous work; cited from earlier work
in vitro [3] = conditions: mouse, microsomes

O=C1CC(=O)N(CCc2ccccc2)C(=O)N1CCc1ccccc1 [Compound 1, 1,3-bis(2-phenylethyl)pyrimidine-2,4,6(1H,3H,5H)-trione]
solubility (physchem): 31.3 µM (≈ 10.5 µg/mL) | half-life (in vitro [1]): 63.5 min | EC50 (PC12-G93A-YFP cell line): 1680 nM | maximum tolerated dose [2]: 100 mg/kg | half-life (in vitro [3]): 16 min

— PMC4250310 (Bioorganic & medicinal chemistry letters, 2014)
